Reference: PMC5951806, “Rapid labelling and covalent inhibition of intracellular native proteins using ligand-directed N-acyl-N-alkyl sulfonamide” (Nature Communications, 2018)
Several values for one entry are separate records, joined by “and”; a condition that tells them apart may be missing. Identical values can stand only once.

Tests used:
Assay in all cases: TMT LC-MSMS of 11-labelled proteins
Type in all cases: cell-based
Serum albumin (ALB) = Serum albumin (ALB) (Homo sapiens, UniProt P02768)
[1] = biological target: Stress-70 protein, mitochondrial (HSPA9) (Homo sapiens, UniProt P38646)
[2] = biological target: Cytochrome b-c1 complex subunit 1, mitochondrial (UQCRC1) (Homo sapiens, UniProt P31930)
[3] = biological target: T1, ADP/ATP translocase 2 (SLC25A5) (Homo sapiens, UniProt P05141)
T1 sequence (P05141 1-298): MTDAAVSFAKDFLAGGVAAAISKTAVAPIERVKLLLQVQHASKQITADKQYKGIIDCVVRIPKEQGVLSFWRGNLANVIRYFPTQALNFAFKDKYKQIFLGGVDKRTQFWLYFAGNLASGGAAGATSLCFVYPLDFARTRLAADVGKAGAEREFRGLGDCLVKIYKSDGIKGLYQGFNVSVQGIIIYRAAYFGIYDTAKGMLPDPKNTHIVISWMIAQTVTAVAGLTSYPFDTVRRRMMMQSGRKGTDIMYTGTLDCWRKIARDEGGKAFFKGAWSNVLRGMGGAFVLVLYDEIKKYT

[4] = biological target: Isoform 2 of Heat shock protein HSP 90-alpha (HSP90AA1) (Homo sapiens, UniProt P07900)
[5] = sheet Exp1, SKBR3 cells, 11 0.5 µM 3 h vs DMSO
[6] = sheet Exp1, SKBR3 cells, 11 0.5 µM 3 h vs with PU-H71 10 µM
[7] = sheet Merged, SKBR3 cells, 11 0.5 µM 3 h vs DMSO
[8] = sheet Merged, SKBR3 cells, 11 0.5 µM 3 h vs with PU-H71 10 µM

Sequence of Stress-70 protein, mitochondrial (HSPA9) (P38646 47-679): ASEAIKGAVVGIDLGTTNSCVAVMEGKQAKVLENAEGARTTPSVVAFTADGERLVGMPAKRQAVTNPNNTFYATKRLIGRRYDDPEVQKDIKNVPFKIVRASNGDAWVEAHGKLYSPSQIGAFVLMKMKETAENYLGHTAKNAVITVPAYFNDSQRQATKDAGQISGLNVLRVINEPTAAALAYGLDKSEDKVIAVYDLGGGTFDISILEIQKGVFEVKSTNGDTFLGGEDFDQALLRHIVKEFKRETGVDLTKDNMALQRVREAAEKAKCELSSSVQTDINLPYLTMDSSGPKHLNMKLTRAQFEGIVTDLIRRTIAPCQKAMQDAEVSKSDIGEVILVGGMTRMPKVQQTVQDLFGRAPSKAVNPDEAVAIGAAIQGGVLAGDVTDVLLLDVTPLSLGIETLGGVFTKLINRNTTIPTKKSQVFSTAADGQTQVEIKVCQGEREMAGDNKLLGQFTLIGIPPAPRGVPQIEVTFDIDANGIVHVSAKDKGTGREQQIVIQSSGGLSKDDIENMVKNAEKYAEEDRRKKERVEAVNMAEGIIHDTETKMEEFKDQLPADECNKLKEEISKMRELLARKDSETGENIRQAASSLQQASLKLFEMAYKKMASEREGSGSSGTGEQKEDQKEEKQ
Sequence of Serum albumin (ALB) (P02768 25-609): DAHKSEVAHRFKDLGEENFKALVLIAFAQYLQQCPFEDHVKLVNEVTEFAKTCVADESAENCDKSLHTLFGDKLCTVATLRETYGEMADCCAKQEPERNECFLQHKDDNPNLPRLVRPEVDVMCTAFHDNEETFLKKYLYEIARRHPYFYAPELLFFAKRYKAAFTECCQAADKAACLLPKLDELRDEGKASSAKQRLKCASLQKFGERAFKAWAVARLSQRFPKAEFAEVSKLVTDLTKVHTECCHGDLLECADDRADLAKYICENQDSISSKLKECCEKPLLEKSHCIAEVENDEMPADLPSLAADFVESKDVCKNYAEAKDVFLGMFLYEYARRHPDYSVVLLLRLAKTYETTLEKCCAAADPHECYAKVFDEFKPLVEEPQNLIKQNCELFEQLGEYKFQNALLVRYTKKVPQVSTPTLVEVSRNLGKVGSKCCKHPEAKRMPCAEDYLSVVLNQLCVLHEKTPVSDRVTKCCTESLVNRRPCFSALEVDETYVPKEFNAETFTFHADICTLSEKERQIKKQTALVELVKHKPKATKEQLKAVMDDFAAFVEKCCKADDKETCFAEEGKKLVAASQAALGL

## CC(=O)Oc1ccc2c(c1)Oc1cc(OC(C)=O)ccc1C21OC(=O)c2cc(C(=O)NCCOCCOCCNC(=O)CCCC(=O)N(CC#N)S(=O)(=O)c3ccc(C(=O)NCCCn4c(Sc5cc6c(cc5I)OCO6)nc5c(N)ncnc54)cc3)ccc21 [compound 11]
Serum albumin (ALB); Exp3, ALB
  Abundance Ratio: (11) / (11 with PU-H71): 0.706
  Abundance Ratio: (11) / (DMSO): 1.152
  Abundances (Grouped): 11: 132.6
  Abundances (Grouped): 11 with PU-H71: 187.7
Serum albumin (ALB); [5]
  Abundance Ratio: (11) / (DMSO): 0.969
Serum albumin (ALB); [6]
  Abundance Ratio: (11) / (11 with PU-H71): 0.846
Serum albumin (ALB); sheet Exp2, ALB
  Abundance Ratio: (11) / (11 with PU-H71): 0.796
  Abundance Ratio: (11) / (DMSO): 0.967
  Abundances (Grouped): 11: 219.9
  Abundances (Grouped): 11 with PU-H71: 276.3
Serum albumin (ALB); [7]
  Abundance Ratio: (11) / (DMSO): 0.969
Serum albumin (ALB); [8]
  Abundance Ratio: (11) / (11 with PU-H71): 0.846
[1]; Exp3, HSPA9
  Abundance Ratio: (11) / (11 with PU-H71): 0.949
  Abundance Ratio: (11) / (DMSO): 2.217
  Abundances (Grouped): 11: 31.7
[1]; Exp3, HSPA9, with PU-H71
  Abundances (Grouped): 11 with PU-H71: 33.4
[1]; [7]
  Abundance Ratio: (11) / (DMSO): 2.217
[1]; [8]
  Abundance Ratio: (11) / (11 with PU-H71): 0.949
[2]; Exp3, UQCRC1
  Abundance Ratio: (11) / (11 with PU-H71): 0.7
  Abundance Ratio: (11) / (DMSO): 3
  Abundances (Grouped): 11: 50.1
  Abundances (Grouped): 11 with PU-H71: 71.6
[2]; sheet Exp2, UQCRC1
  Abundance Ratio: (11) / (11 with PU-H71): 0.772
  Abundance Ratio: (11) / (DMSO): 3.724
  Abundances (Grouped): 11: 60.7
  Abundances (Grouped): 11 with PU-H71: 78.6
[2]; [7]
  Abundance Ratio: (11) / (DMSO): 3.342
[2]; [8]
  Abundance Ratio: (11) / (11 with PU-H71): 0.735
[3]; Exp3, SLC25A5
  Abundance Ratio: (11) / (11 with PU-H71): 0.462
  Abundance Ratio: (11) / (DMSO): 2.668
  Abundances (Grouped): 11: 245.2
  Abundances (Grouped): 11 with PU-H71: 530.2
[3]; [5]
  Abundance Ratio: (11) / (DMSO): 5.138
[3]; [6]
  Abundance Ratio: (11) / (11 with PU-H71): 0.711
[3]; sheet Exp2, SLC25A5
  Abundance Ratio: (11) / (11 with PU-H71): 0.597
  Abundance Ratio: (11) / (DMSO): 5.273
  Abundances (Grouped): 11: 116
  Abundances (Grouped): 11 with PU-H71: 194.4
[3]; [7]
  Abundance Ratio: (11) / (DMSO): 2.741
[3]; [8]
  Abundance Ratio: (11) / (11 with PU-H71): 0.563
[4]; Exp3, HSP90AA1
  Abundance Ratio: (11) / (11 with PU-H71): 4.154
  Abundance Ratio: (11) / (DMSO): 13.53
  Abundances (Grouped): 11: 1235.3
  Abundances (Grouped): 11 with PU-H71: 297.4
[4]; [5]
  Abundance Ratio: (11) / (DMSO): 12.472
[4]; [6]
  Abundance Ratio: (11) / (11 with PU-H71): 3.732
[4]; sheet Exp2, HSP90AA1
  Abundance Ratio: (11) / (11 with PU-H71): 3.971
  Abundance Ratio: (11) / (DMSO): 11.996
  Abundances (Grouped): 11: 903.3
  Abundances (Grouped): 11 with PU-H71: 227.5
[4]; [7]
  Abundance Ratio: (11) / (DMSO): 13.5 and 13.53
[4]; [8]
  Abundance Ratio: (11) / (11 with PU-H71): 4.154
